Test results published in patent US20100286181A1, “PYRROLE DERIVATIVES WITH ANTIBACTERIAL ACTIVITY” (ASTRAZENECA AB, priority 2006, published 2010).

Target: GyrB ATPase activity (E. coli GyrA, E. coli GyrB) (Escherichia coli, UniProt P0AES6)
Assay: GyrB ATPase inhibition activity assay (ammonium molybdate/malachite green phosphate detection)
Type: biochemical
Details: figure quoted may be an average of two or more results
Description: Compounds may be tested for inhibition of GyrB ATPase activity using an ammonium molybdate/malachite green-based phosphate detection assay (Lanzetta, P. A., L. J. Alvarez, P. S. Reinach, and O. A. Candia, 1979, 100: 95-97). Assays can be performed in multiwell plates in 100 μl reactions containing: 50 mM HEPES buffer pH 7.5, 75 mM ammonium acetate, 5.5 mM magnesium chloride, 0.5 mM ethylenediaminetetraacetic acid, 5% glycerol, 1 mM 1,4-Dithio-DL-threitol, 200 nM bovine serum albumin, 5 μg/ml sheared salmon sperm DNA, 2.5 nM E. coli GyrA, 2.5 nM E. coli GyrB, 250 μM ATP, and compound in dimethylsulfoxide. Reactions can be quenched with 150 μl of ammonium molybdate/malachite green detection reagent containing 1.2 mM malachite green hydrochloride, 8.5 mM ammonium molybdate tetrahydrate, and 1 M hydrochloric acid.
Compounds of the Examples could be expected to have IC50 values of <200 μg/ml in one or both assays described herein above. For Example the following results were obtained in a GyrB ATPase inhibition activity assay substantially similar to the above wherein the figure quoted may be an average of two or more results

SMILES	IC50
CO/N=C1\CN(c2nc(-c3ncnn3C)c(C(=O)O)s2)CCC1NC(=O)c1[nH]c(C)c(Cl)c1Cl (stereo not drawn) [Example 25, 2-[(3E)-4-{[(3,4-Dichloro-5-methyl-1H-pyrrol-2-yl)carbonyl]amino}-3-(methoxyimino)piperidin-1-yl]-4-(1-methyl-1H-1,2,4-triazol-5-yl)-1,3-thiazole-5-carboxylic acid]	< 9.77 nM
COCn1ccnc1-c1nc(N2CCC(NC(=O)c3[nH]c(C)c(Cl)c3Cl)/C(=N/OC)C2)sc1C(=O)O (stereo not drawn) [Example 28, 2-[(3E)-4-{[(3,4-Dichloro-5-methyl-1H-pyrrol-2-yl)carbonyl]amino}-3-(methoxyimino)piperidin-1-yl]-4-[1-(methoxymethyl)-1H-imidazol-2-yl]-1,3-thiazole-5-carboxylic acid]	< 9.77 nM
Cc1[nH]c(C(=O)NC2CCN(c3ncc(C(=O)O)s3)CC23OCCO3)c(Cl)c1Cl (stereo not drawn) [Example 11, 2-(10-{[(3,4-Dichloro-5-methyl-1H-pyrrol-2-yl)carbonyl]amino}-1,4-dioxa-7-azaspiro[4.5]dec-7-yl)-1,3-thiazole-5-carboxylic acid]	17.8 nM
COC1COC2(CN(c3ncc(C(=O)O)s3)CCC2NC(=O)c2[nH]c(C)c(Cl)c2Cl)OC1 [Example 52, 2-((rel-3R,6r,11R)-11-{[(3,4-Dichloro-5-methyl-1H-pyrrol-2-yl)carbonyl]amino}-3-methoxy-1,5-dioxa-8-azaspiro[5.5]undec-8-yl)-1,3-thiazole-5-carboxylic acid]	< 9.77 nM
COCC(COC)NC(=O)c1nc(N2CC[C@@H](NC(=O)c3[nH]c(C)c(Cl)c3Cl)[C@@H](n3cc(C)nn3)C2)sc1C(=O)O [Example 105]	< 9.77 nM
Cc1[nH]c(C(=O)N[C@@H]2CCN(c3nc4cccc(C(N)=O)c4s3)C[C@@H]2n2ccnn2)c(Cl)c1Cl [Example 82, 2-[(3S,4R)-4-{[(3,4-Dichloro-5-methyl-1H-pyrrol-2-yl)carbonyl]amino}-3-(1H-1,2,3-triazol-1-yl)piperidin-1-yl]-1,3-benzothiazole-7-carboxamide]	< 9.77 nM
Cc1cn([C@@H]2CN(c3ncc(C(=O)O)s3)CC[C@@H]2NC(=O)c2[nH]c(C)c(Cl)c2Cl)nn1 (racemic) [Example 122, cis(±)2-[4-{[(3,4-Dichloro-5-methyl-1H-pyrrol-2-yl)carbonyl]amino}-3-(4-methyl-1H-1,2,3-triazol-1-yl)piperidin-1-yl]-1,3-thiazole-5-carboxylic acid]	< 9.77 nM
COC(=O)c1cnc(N2CCC(NC(=O)c3[nH]c(C)c(Cl)c3Cl)C3(C2)OCC(C)(C)CO3)s1 (stereo not drawn) [Example 64, Methyl 2-(11-{[(3,4-dichloro-5-methyl-1H-pyrrol-2-yl)carbonyl]amino}-3,3-dimethyl-1,5-dioxa-8-azaspiro[5.5]undec-8-yl)-1,3-thiazole-5-carboxylate]	155 nM
COCc1cn([C@H]2CN(c3nc(C(=O)NC(COC)COC)c(C(=O)O)s3)CC[C@H]2NC(=O)c2[nH]c(C)c(Cl)c2Cl)nn1 [Example 116]	< 9.77 nM
COC(=O)c1cnc(N2CC[C@@H](NC(=O)c3[nH]c(C)c(Cl)c3Cl)[C@@H](n3cc(Cl)nn3)C2)s1 [Example 71, Methyl 2-[(3S,4R)-3-(4-chloro-1H-1,2,3-triazol-1-yl)-4-[(3,4-dichloro-5-methyl-1H-pyrrole-2-carbonyl)amino]-1-piperidinyl]-1,3-thiazole-5-carboxylate]	40 nM
CCOC(=O)c1sc(N2CC[C@@H](NC(=O)c3[nH]c(C)c(Cl)c3Cl)[C@@H](n3cc(C#N)nn3)C2)nc1C(=O)NCCOC [Example 92, Ethyl 2-[(3S,4R)-3-(4-cyano-1H-1,2,3-triazol-1-yl)-4-[(3,4-dichloro-5-methyl-1H-pyrrole-2-carbonyl)amino]-1-piperidinyl]-4-(2-methoxyethylcarbamoyl)-1,3-thiazole-5-carboxylate]	< 9.77 nM
COCCn1ccnc1-c1nc(N2CCC(NC(=O)c3[nH]c(C)c(Cl)c3Cl)/C(=N/OC)C2)sc1C(=O)O (stereo not drawn) [Example 27, 2-[(3E)-4-{[(3,4-Dichloro-5-methyl-1H-pyrrol-2-yl)carbonyl]amino}-3-(methoxyimino)piperidin-1-yl]-4-[1-(2-methoxyethyl)-1H-imidazol-2-yl]-1,3-thiazole-5-carboxylic acid]	< 63.5 nM
CC(=O)c1nc(N2CCC(NC(=O)c3[nH]c(C)c(Cl)c3Cl)C3(C2)OCCCO3)sc1C(=O)O (stereo not drawn) [Example 19, 4-Acetyl-2-(11-{[(3,4-dichloro-5-methyl-1H-pyrrol-2-yl)carbonyl]amino}-1,5-dioxa-8-azaspiro[5.5]undec-8-yl)-1,3-thiazole-5-carboxylic acid]	< 9.77 nM
Cc1[nH]c(C(=O)N[C@@H]2CCN(c3ncc(C(=O)O)s3)C[C@@H]2n2ccnn2)c(Cl)c1Cl [Example 101, 2-[(3S,4R)-4-{[(3,4-Dichloro-5-methyl-1H-pyrrol-2-yl)carbonyl]amino}-3-(1H-1,2,3-triazol-1-yl)piperidin-1-yl]-1,3-thiazole-5-carboxylic acid]	< 9.77 nM
COC(=O)c1cnc(N2CCC(NC(=O)c3[nH]c(C)c(Cl)c3Cl)C3(C2)OCCCO3)s1 (stereo not drawn) [Example 6, Methyl 2-(11-{[(3,4-dichloro-5-methyl-1H-pyrrol-2-yl)carbonyl]amino}-1,5-dioxa-8-azaspiro[5.5]undec-8-yl)-1,3-thiazole-5-carboxylate]	79.1 nM
COC1COC2(CN(c3ncc(C(=O)O)s3)CCC2NC(=O)c2[nH]c(C)c(Cl)c2Cl)OC1 [Example 53, 2-((rel-3S,6s,11R)-11-{[(3,4-Dichloro-5-methyl-1H-pyrrol-2-yl)carbonyl]amino}-3-methoxy-1,5-dioxa-8-azaspiro[5.5]undec-8-yl)-1,3-thiazole-5-carboxylic acid]	< 9.77 nM
CC(=O)c1nc(N2CCC(NC(=O)c3[nH]c(C)c(Cl)c3Cl)C3(C2)OCCO3)sc1C(=O)O (stereo not drawn) [Example 12, 4-Acetyl-2-(10-{[(3,4-dichloro-5-methyl-1H-pyrrol-2-yl)carbonyl]amino}-1,4-dioxa-7-azaspiro[4.5]dec-7-yl)-1,3-thiazole-5-carboxylic acid]	< 83.1 nM
COC(=O)c1cnc(N2CC[C@@H](NC(=O)c3[nH]c(C)c(Cl)c3Cl)[C@@H](n3ccnn3)C2)s1 [Example 70, Methyl 2-[(3S,4R)-4-{[(3,4-dichloro-5-methyl-1H-pyrrol-2-yl)carbonyl]amino}-3-(1H-1,2,3-triazol-1-yl)-1-piperidinyl]-1,3-thiazole-5-carboxylate]	12.4 nM
Cc1[nH]c(C(=O)NC2CCN(c3ncc(C(=O)O)s3)CC23OCC2(CC2)CO3)c(Cl)c1Cl (stereo not drawn) [Example 55, 2-(11-{[(3,4-Dichloro-5-methyl-1H-pyrrol-2-yl)carbonyl]amino}-5,12-dioxa-8-azadispiro[2.2.5.2]tridec-8-yl)-1,3-thiazole-5-carboxylic acid]	< 9.77 nM
CNC(=O)c1nc(N2CCC(NC(=O)c3[nH]c(C)c(Cl)c3Cl)/C(=N/OC)C2)sc1C(=O)O (stereo not drawn) [Example 26, 2-[(3E)-4-{[(3,4-Dichloro-5-methyl-1H-pyrrol-2-yl)carbonyl]amino}-3-(methoxyimino)piperidin-1-yl]-4-[(methylamino)carbonyl]-1,3-thiazole-5-carboxylic acid]	< 9.77 nM
CO/N=C1\CN(c2nc(-c3ncc[nH]3)c(C(=O)O)s2)CCC1NC(=O)c1[nH]c(C)c(Cl)c1Cl (stereo not drawn) [Example 29, 2-[(3E)-4-{[(3,4-Dichloro-5-methyl-1H-pyrrol-2-yl)carbonyl]amino}-3-(methoxyimino)piperidin-1-yl]-4-(1H-imidazol-2-yl)-1,3-thiazole-5-carboxylic acid]	< 9.77 nM
COCCNC(=O)c1nc(N2CC[C@@H](NC(=O)c3[nH]c(C)c(Cl)c3Cl)[C@@H](N=[N+]=[N-])C2)sc1C(=O)O [Example 103]	< 9.77 nM
CNC(=O)c1nc(N2CCC(NC(=O)c3[nH]c(C)c(Cl)c3Cl)C3(C2)OCCCO3)sc1C(=O)OC(C)C (stereo not drawn) [Example 8, Isopropyl 2-(11-{[(3,4-dichloro-5-methyl-1H-pyrrol-2-yl)carbonyl]amino}-1,5-dioxa-8-azaspiro[5.5]undec-8-yl)-4-[(methylamino)carbonyl]-1,3-thiazole-5-carboxylate]	73.6 nM
COCCNC(=O)c1nc(N2CC[C@@H](NC(=O)c3[nH]c(C)c(Cl)c3Cl)[C@@H](n3cc(C)nn3)C2)sc1C(=O)O [Example 104]	< 9.77 nM
COC[C@H](C)NC(=O)c1nc(N2CC[C@H](NC(=O)c3[nH]c(C)c(Cl)c3Cl)[C@H](n3cncn3)C2)sc1C(=O)O (racemic) [Example 50, cis(±)2-[4-{[(3,4-Dichloro-5-methyl-1H-pyrrol-2-yl)carbonyl]amino}-3-(1H-1,2,4-triazol-1-yl)piperidin-1-yl]-4-({[(1S)-2-methoxy-1-methylethyl]amino}carbonyl)-1,3-thiazole-5-carboxylic acid]	< 9.77 nM
COCCNC(=O)c1nc(N2CCC(NC(=O)c3[nH]c(C)c(Cl)c3Cl)C3(C2)OCCCO3)sc1C(=O)O (stereo not drawn) [Example 17, 2-(11-{[(3,4-Dichloro-5-methyl-1H-pyrrol-2-yl)carbonyl]amino}-1,5-dioxa-8-azaspiro[5.5]undec-8-yl)-4-{[(2-methoxyethyl)amino]carbonyl}-1,3-thiazole-5-carboxylic acid]	< 9.77 nM
CNC(=O)c1nc(N2CCC(NC(=O)c3[nH]c(C)c(Cl)c3Cl)/C(=N/OC)C2)sc1C(=O)OC (stereo not drawn) [Example 31, Methyl 2-[(3E)-4-{[(3,4-dichloro-5-methyl-1H-pyrrol-2-yl)carbonyl]amino}-3-(methoxyimino)piperidin-1-yl]-4-[(methylamino)carbonyl]-1,3-thiazole-5-carboxylate]	49.4 nM
